According to patent publication US8133903B2, “Methods of use of inhibitors of phosphodiesterases and modulators of nitric oxide, reactive oxygen species, and metalloproteinases in the treatment of peyronie's disease, arteriosclerosis and other fibrotic diseases” (Los Angeles Biomedical Research Institute at Harbor—UCLA …, priority 2003, dated 2012):

Columns and labels:
Assay type in all cases: in vivo
[1] = test system: TGF-β1-induced fibrotic plaque in the rat tunica albuginea; experiment: TGF-β1 rat model of Peyronie's disease, plaque and collagen deposition by Masson staining with QIA; settings: long-term oral L-NIL, TGF-β1 injected rat
Method: TGF-β1 rat model. Male Fisher 344 rats, 9-11 month old purchased from the NIH/NIA colony (Harlan Sprague-Dawley, Inc., San Diego, Calif.) and maintained under controlled temperature and lighting, were anesthetized and injected in the penile TA at the middle of the penis with either vehicle only (saline, group 1) or 0.5 μg recombinant human TGF-β1 (Biotech Diagnostic, Laguna Niguel, Calif., groups 2-5) as disclosed (Ferrini et al., 2002; Vernet et al., 2002). After the injection, groups 1 and 2 were given drinking water while the other groups received water with L-arginine (2.25 g/kg/day, group 3) (Moody et al., 1997), or sildenafil (10 mg/kg/day, group 4) or pentoxifylline (10 mg/kg/day, group 5). Forty-five days later, or as indicated, animals were sacrificed and perfused through the left ventricle with saline followed by 4% formalin ((Ferrini et al., 2002; Vernet et al., 2002). After the penises were excised, the penile skin was denuded by removing the glans and adhering non-crural tissue. The penile shaft was separated from the crura and 2-3 mm transverse slices were cut around the site of the saline or TGF-β1 injection. All tissues were post-fixed overnight in 4% formalin, washed in PBS and stored at 4° C.
In the case of tissue sections, the determinations of the collagen/smooth muscle ratio were carried out with Masson trichrome (Ferrini et al., 2002; Davila et al., 2003b) on adjacent 5 μm paraffin-embedded cross-sections from the human normal tunical or plaque tissues, or from a 2 mm area around the site of injection in the rat saline- and TGF-β1-injected shaft tissues. Other distal sections were obtained along the rat penile shaft.
The quantitation of the staining obtained by either histochemical or immunohisto/cytochemical techniques was performed by computerized densitometry using the ImagePro 4.01 program (Media Cybernetics, Silver Spring, Md.), coupled to an Olympus BHS microscope equipped with a Spot RT digital camera or VCC video camera (Wang et al., 2001; Ferrini et al., 2001a, 2001b; Davila et al., 2003b).

[2] = test system: collagen I promoter; experiment: Collagen I promoter reporter plasmid (β-galactosidase, luminometry) injected into the rat PD-like plaque; settings: L-NIL treated TGF-β1 rat, vs control TA
Excerpt: The effect of L-NIL in increasing collagen in the TA of the TGF-β1 rat model may be due to an increase in collagen synthesis, a decrease in its normal breakdown, or both. To determine whether the larger PD plaque in the L-NIL treated rat is due, at least in part, to an increase in collagen I synthesis (the most prevalent collagen protein in the TA), and not simply to the inhibition of collagenolysis by the MMPs, we injected a cDNA plasmid construct of the collagen I promoter driving the expression of a reporter gene (Magee et al., 2002a) into the site of the original TGF-β1 or saline injection, 10 days prior to sacrifice and 35 days after the TGF-β1 injection. This plasmid is an indicator of collagen I transcriptional activity within the rat PD plaque.

[3] = test system: TGF-β1-induced fibrotic plaque in the rat tunica albuginea; experiment: Nitrotyrosine and ROS marker (heme-oxygenase I) detection in the TA of the TGF-β1 rat model
Method: (§1) The determinations of iNOS, nitrotyrosine, heme-oxygenase I, PAI-I (Davila et al., 2003b), manganese superoxide dismutase (MnSOD), and CuZn SOD (Cu/Zn SOD) (Martin et al., 1994) were carried out on 5 μm paraffin-embedded adjacent tissue sections, that. were quenched for endogenous peroxidase activity after deparaffinization and rehydration. Sections were blocked with normal goat serum, and incubated with polyclonal IgG antibodies against mouse iNOS (1:500) (Transduction Laboratories, Lexington, KT), nitrotyrosine (1:100) (Upstate, Lake Placid, N.Y.), Mn SOD and Cu/Zn SOD (Oxygen, Portland, Oreg.) (1:800 and 1:500 respectively), heme oxygenase I (Stressgen, San Diego, Calif.), or PAI-1 (Abcam Ltd, Cambridge, UK). For negative controls the first antibodies were replaced by IgG isotype. The detection was based on a secondary anti-rabbit biotinylated antibody (1:200) for iNOS and nytrotyrosine (Calbiochem, La Jolla, Calif.), or anti-sheep biotinylated antibody (1:200) for Cu/Zn and Mn SOD, followed by the ABC complex (1:100) (Calbiochem) and 3,3′ diaminobenzidine (spelling) (DAB) (Sigma, St Louis Mo.). Sections were counterstained with hematoxylin.
The studies with L-arginine detailed in Example 1 show modulation of the size of the PD plaque by NO. […]

[4] = test system: arterial media of aged Brown Norway rats; experiment: Aged rat arterial tree model, Masson staining (SMC/collagen), intima/media thickness and lumen diameter; settings: for intima media thickness / lumen diameter: OLD + L-NIL
Method: (§2) Arterial Tree Rodent Model. Young (3-month) and aged (22-24 month) male Brown Norway rats were obtained from the NIH/NIA colony (Harlan Sprague-Dawley, Inc., San Diego, Calif.), and maintained under controlled temperature and lighting. One half of the aged animals were treated for 3 weeks with L-NIL at 0.1 g/l in the drinking water, while the rest of the animals received plain drinking water. Animals were anesthetized, pretreated with heparin, and perfused through the left ventricle with saline followed by 4% formalin. The abdominal aorta, brachial and femoral neurovascular bundles as well as the penis, denuded of its skin, were removed and post-fixed overnight in 4% formalin, and washed and stored in PBS at 4 C until paraffin embedding.
SMC and collagen fibers within the corporal tissue and vascular tree were estimated by Masson trichromic staining (Sigma Diagnostic, St. Louis, Mo.) (Ferrini et al., 2002; Vernet et al., 2002; Davila et al, […]) in sections adjacent to those used for immunohistochemical staining, followed by image analysis to measure the ratio between SMC (red) and collagen fibers (blue). The results were expressed as red/blue ratios per area (see below). In the arterial tree, the intima/media thickness (IMT), and the diameter of the lumen were also measured.
(§3) For iNOS, nitroyrosine, heme-oxygenase, PAI-1, MnSOD and Cu/Zn SOD determination, at least 6 sections per specimen were analyzed. Each slide assayed had its corresponding negative control. In certain cases, the number of immuno-positive cells was determined as a percentage of the total counterstained nuclei in a computerized grid. In the Masson staining, the ratio between SMC (red) and collagen fibers (blue) was obtained and expressed per area.

[5] = test system: arterial media of aged Brown Norway rats; experiment: Aged rat arterial tree model, immunohistochemistry for iNOS, nitrotyrosine, Cu/Zn SOD, heme oxygenase I, PAI
Method: as §2, §1, §3

[6] = test system: SMC in the media of the penile resistance arteries; experiment: Aged rat arterial tree model, TUNEL apoptosis in the media of the penile arteries; settings: aged rats, L-NIL treatment
Method: as §2, §3

## CC(=N)NCCCC[C@H](N)C(=O)O [L-NIL, L-iminoethyl-L-lysine]
[1]
  expansion and thickening of the TA due to collagen fiber deposition: remarkable expansion and thickening of the TA
[2]
  expression of the reporter β-galactosidase driven by the collagen I promoter (luminometry in tissue extracts): considerably intensified
[3]; iNOS activity blocked with L-NIL in the TGF-β1 rat model
  ROS levels: considerable elevation
[3]; long-term oral L-NIL, TGF-β1 injected rat
  peroxynitrite as indicated by nitrotyrosine formation in the TA: considerable increase
[4]; aged rats, L-NIL for 3 weeks
  collagen fibers within the media of the aorta and the dorsal penile artery: further increase in the collagen fibers
[4]; aged rats, L-NIL, aorta, femoral, dorsal, with the exception of the bulbourethral artery
  amount of collagen within the media (SMC/collagen ratio, image analysis): further exacerbation in the amount of collagen
[4]; aorta
  intima media thickness: 85.2 ± 6.6 μm
[4]; bulbo urethral
  intima media thickness: 9.9 ± 0.7 μm
  lumen diameter: 47.3 ± 6.6 μm
[4]; femoral
  intima media thickness: 51.8 ± 4.6 μm
[4]; penile dorsal
  intima media thickness: 23.6 ± 3.3 μm
  lumen diameter: 105.5 ± 16. μm
[5]; L-NIL
  effect on PAI expression in the aged media (quantitative image analysis): negligible
  expression of heme oxygenase I in the penile dorsal artery: did not induce a further significant change
  iNOS expression in the arterial media: reduction in iNOS expression
  peroxynitrite formation (nitrotyrosine) in the arterial media: reduction in peroxynitrite formation
[5]; L-NIL blockade of iNOS activity
  increase of Cu/Zn SOD (indirect marker of ROS), image analysis: 40 to 50%
[6]
  apoptotic index, dorsal and bulbourethral penile arteries: reduction
